What was measured:
[1] = system: rat MIA-induced osteoarthritis model; assay: Analgesic test by assessment of hindlimb weight distribution in monoiodoacetate (MIA)-induced osteoarthritis model; format: in vivo; conditions: for ED50: Rattus norvegicus, read-out: Difference in weight between the right and left hindlimbs of rats: ED50
Experimental: This disease model was prepared according to the description in Toxicol Pathol 31(6), 619-624 (2003). Female SD rats (6-7 weeks old, Charles River Laboratories Japan, Inc.) were anesthetized with halothane (Takeda Pharmaceutical Company, Limited) and given a single intra-articular injection of 1 mg of monosodium iodoacetate (MIA; Sigma, St. Louis) through the infrapatellar ligament of the right knee. MIA was dissolved with physiological saline and administered in a volume of 50 μL using a 27-gauge, 0.5-inch needle. Three weeks after the injection of MIA (establishment of pathology of osteoarthritis), single oral administration of a ROCK inhibitor or diclofenac was given and the weights of both hindlimbs of the rats were determined using an incapacitance tester (Linton Instrumentation, Norfork, UK) 2 hours after administration of the compounds to obtain ED50 values (Table 1).

[2] = system: bradykinin-induced joint pain model; assay: Pain alleviation effect on bradykinin-induced joint pain model; format: in vivo, rat; conditions: for pain score (0-4): 30 min before bradykinin, decreased from 2.6
Experimental: Preparation of the Joint Pain Model and Evaluation of a Level of Pain were conducted based on the description in Folia pharmacol. japon. 92, 17-27 (1988). Female SD rats (6-7 weeks old, Charles River Laboratories Japan, Inc.) were anesthetized with halothane (Takeda Pharmaceutical Company, Limited) and given a single intra-articular injection of a saline solution of Wf536 or Compound 2 into the knee joint cavity of the hindlimb using a 27-gauge, 0.5-inch needle at a dose of 0.03 μg/site, 0.3 μg/site or 3 μg/site. Thirty minutes after administration of the drug, a physiological saline solution of bradykinin was injected into the knee joint cavity of the hindlimb (3 μM/site/50 μl), then the response to pain of the rat after administration of bradykinin was observed. The level of pain was scored as five grade point (0-4) as follows: 0: no lameness to lameness for 10 seconds; 1: lameness for 10 to 30 seconds; 2: lift of the limb within 10 seconds or lameness for 31 or more seconds; 3: three-legged gait within 10 seconds followed by lameness; and 4: three-legged gait for 10 or more seconds followed by lameness. About 10 rat models were used in each experimental group. It was confirmed that administration of bradykinin leads to response to pain scored as about 3.

[3] = system: MIA-induced osteoarthritis model; assay: Cartilage damage score of the distal end of the tibia in MIA-induced osteoarthritis model; format: in vivo, rat; conditions: for score of morphological change of the distal end of the tibia (0-4): three weeks after injection, decreased from 3
Experimental: This disease model was prepared according to the description in Toxicol Pathol 31 (6), 619-624 (2003). Female SD rats (6-7 weeks old, Charles River Laboratories Japan, Inc.) were anesthetized with halothane (Takeda Pharmaceutical Company, Limited) and given a single intra-articular injection of 1 mg of monosodium iodoacetate (MIA; Sigma, St. Louis) through the intrapatellar ligament of the right knee. MIA was dissolved with physiological saline and administered in a volume of 50 μL using a 27-gauge, 0.5-inch needle. Three weeks after the injection, a tibia was isolated and morphological change of the distal end of the tibia was scored (0-4; FIG. 1). About 8 rats were used for each group. Three weeks after the injection of MIA, cartilage damage of about score 3 was confirmed. Wf536 or Compound 2 was injected intra-articularly at a concentration of 0.03 μg/site, 0.3 μg/site or 3 μg/site 2 times a week (every 2 to 3 days) from the day of administration of MIA. […] 0: no damage; 1: damage on the surface of cartilage; 2: cartilage degradation; 3: cartilage degradation and subchondral bone damage; 4: cartilage degradation, subchondral bone damage and spur formation.

[4] = female SD rats, single oral administration three weeks after MIA injection, measured 2 hours after administration

Compound: NC(=O)c1cc(F)c(N[C@H]2CC[C@H](N)CC2)cc1F [Compound 1, 4-[(trans-4-aminocyclohexyl)amino]-2,5-difluorobenzamide]
- ED50 [1, 4]: < 10 mg/kg

Compound: NC(=O)c1cc(Cl)c(N[C@H]2CC[C@H](N)CC2)cc1F [Compound 2, 4-[(trans-4-aminocyclohexyl)amino]-5-chloro-2-fluorobenzamide]
- ED50 [1, 4]: < 10 mg/kg
- pain score (0-4) ([2]; single intra-articular injection 0.3 μg/site): 1.1
- score of morphological change of the distal end of the tibia (0-4) ([3]; intra-articular 0.3 μg/site 2 times a week from the day of MIA): 2.3

Compound: CC(C)(N)c1ccc(-c2ccc3[nH]ncc3c2)cc1.Cl.Cl [Compound 3, 2-[4-(1H-indazol-5-yl)phenyl]-2-propanamine dihydrochloride]
- ED50 [1, 4]: < 10 mg/kg

Compound: O=C(O)Cc1ccccc1Nc1c(Cl)cccc1Cl [Diclofenac]
- ED50 [1, 4]: > 30 mg/kg
- efficacy on pain (in words) ([1]; single dose given after establishment of the disease in the rat MIA-induced osteoarthritis model): ineffective

Compound: Cl.O=S(=O)(c1cccc2cnccc12)N1CCCNCC1 [Fasudil, 5-(hexahydro-1H-1,4-diazepin-1-ylsulfonyl)isoquinoline hydrochloride]
- ED50 [1, 4]: < 10 mg/kg

Compound: C[C@@H](N)c1ccc(C(=O)Nc2ccncc2)cc1.Cl [Wf536, 4-[(1R)-1-aminoethyl]-N-(4-piridyl)benzamide monohydrochloride]
- Difference in weight between the right and left hindlimbs of rats: ED50 [1, 4]: <30 mg/kg
- response to pain (in words) ([2]; intra-articular 0.03, 0.3 or 3 μg/site): dose-dependently improved the response to pain
- pain score (0-4) ([2]; single intra-articular injection 3 μg/site): 1.2
- score of morphological change of the distal end of the tibia (0-4) ([3]; intra-articular 3 μg/site 2 times a week from the day of MIA): 2.2
- MIA-induced cartilage damage (in words) ([3]; intra-articular 0.03, 0.3 or 3 μg/site 2 times a week, three weeks): dose-dependently improved the MIA-induced cartilage damage

Reference: patent US20090029970A1, “PAIN REMEDY CONTAINING ROCK INHIBITOR” (Astellas Pharma Inc., priority 2005, published 2009)
